In PubChem BioAssay (NCI):
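Method: 48-hour compound exposure of cells in 96-well plates, five concentrations, linear interpolation of endpoints. GI50 = concentration required for 50% inhibition of growth. TGI: concentration producing complete growth inhibition.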

Legend:
Assay in all cases: inhibition of tumour cell growth, NCI panel, 48 h
UO-31 renal = system: UO-31 renal
SNB-19 CNS = system: SNB-19 CNS
UACC-62 melanoma = system: UACC-62 melanoma
CAKI-1 renal = system: CAKI-1 renal
COLO 205 colon = system: COLO 205 colon
HL-60(TB) leukemia = system: HL-60(TB) leukemia
MDA-MB-435 = system: MDA-MB-435
HCC-2998 colon = system: HCC-2998 colon
MCF7 breast = system: MCF7 breast
SF-539 CNS = system: SF-539 CNS

Row | Compound | GI50 (UO-31 renal) [µM] | TGI (UO-31 renal) [µM] | GI50 (SNB-19 CNS) [µM] | TGI (SNB-19 CNS) [µM] | GI50 (UACC-62 melanoma) [µM] | TGI (UACC-62 melanoma) [µM] | GI50 (CAKI-1 renal) [µM] | TGI (CAKI-1 renal) [µM] | GI50 (COLO 205 colon) [µM] | TGI (COLO 205 colon) [µM] | GI50 (HL-60(TB) leukemia) [µM] | TGI (HL-60(TB) leukemia) [µM] | GI50 (MDA-MB-435) [µM] | TGI (MDA-MB-435) [µM] | GI50 (HCC-2998 colon) [µM] | TGI (HCC-2998 colon) [µM] | GI50 (MCF7 breast) [nM] | TGI (MCF7 breast) [µM] | GI50 (SF-539 CNS) [µM] | TGI (SF-539 CNS) [µM]
1 | O=[N+]([O-])c1ccccc1N/N=C\c1c[nH]c2ccccc12 | 0.658 | > 65.9 | 24.9 | > 100 | 17.1 | > 100 | 3.93 | > 100 | 24.5 | > 100 | 5.56 | > 100 | > 100 | > 100 | 10.9 | > 100 | 850 | > 100 | 12.4 | 31.2
2 | CC(C)(C)C(=O)OCOP(=O)(OCOC(=O)C(C)(C)C)C1CC(O)N(O)C1=O (configuration not stated) | 2.92 | 37.6 | 2.37 | 7.33 | 2.37 | 7.4 | 4.87 | > 100 | 8.66 | > 100 | 3.44 | 22.1 | 8.15 | > 100 | 4.04 | 49 | 3320 | > 100 | 3.18 | 22.1
3 | Cc1ccc(C(SCC(N)C(=O)O)(c2ccc(C)cc2)c2ccc(C)cc2)cc1 (configuration not stated) | 9.79 | 40.4 | 4.97 | 30.2 | 1.03 | 13.8 | 2.74 | 12.5 | 2.14 | 5.62 | 2.53 | 8.09 | 0.337 | 1.16 | 2.5 | 11 | 895 | 18.4 | 1.22 | 7.5
4 | Cn1cc(C2=C(c3cn(C)c4c([N+](=O)[O-])cccc34)C(=O)NC2=O)c2ccccc21 | > 25 | > 25 | > 25 | > 25 | > 25 | > 25 | > 25 | > 25 | > 25 | > 25 | > 25 | > 25 | > 25 | > 25 | > 25 | > 25 | > 25000 | > 25 | > 25 | > 25
5 | CCCCCCCCN(CCCCCCCC)CCCCCCNc1cc(OC)cc2cccnc12 | 10.9 | 24.4 | 10.5 | 24.2 | 16.9 | 31.4 | 12.1 | 32.5 |  |  | 16.4 | 37.3 | 3.59 | 12.8 | 13.1 | 26.2 | 3330 | 12.4 | 3.18 | 11.5
6 | C=C(C)[C@@H]1CC[C@]2(C(=O)O)CC[C@]3(C)[C@H](CC[C@@H]4[C@@]5(C)C[C@@H](CC#Cc6ccc(C(F)(F)F)cc6)[C@H](O)C(C)(C)[C@@H]5CC[C@]43C)[C@@H]12 | 6.52 | > 100 | 3.29 | > 100 |  |  | 2.63 | > 100 | 3.72 | > 100 | 6.2 | > 100 |  |  | 8.48 | > 100 | 2890 | > 100 |  | 
